Source: article PMC6416464 (Drug Metabolism Letters, 2018)

Key:
[1] = Metabolic stability, incubation with human liver cytosol; assay type: in vitro ADME; conditions: 1 µM test compound, 1 mg/mL protein
[2] = with CYP3A4 inhibitor grapefruit juice; cited from earlier work
[3] = Metabolic stability, incubation with human liver microsomes; conditions: 1 µM test compound, 0.5 mg/mL protein
CYP2C8 = molecular target: T1, CYP2C8 (Homo sapiens, UniProt P10632); assay: CYP inhibition in human liver microsomes, CYP2C8; conditions: human, human liver microsomes, pH 7.4, probe paclitaxel
T1 sequence (P10632 1-490): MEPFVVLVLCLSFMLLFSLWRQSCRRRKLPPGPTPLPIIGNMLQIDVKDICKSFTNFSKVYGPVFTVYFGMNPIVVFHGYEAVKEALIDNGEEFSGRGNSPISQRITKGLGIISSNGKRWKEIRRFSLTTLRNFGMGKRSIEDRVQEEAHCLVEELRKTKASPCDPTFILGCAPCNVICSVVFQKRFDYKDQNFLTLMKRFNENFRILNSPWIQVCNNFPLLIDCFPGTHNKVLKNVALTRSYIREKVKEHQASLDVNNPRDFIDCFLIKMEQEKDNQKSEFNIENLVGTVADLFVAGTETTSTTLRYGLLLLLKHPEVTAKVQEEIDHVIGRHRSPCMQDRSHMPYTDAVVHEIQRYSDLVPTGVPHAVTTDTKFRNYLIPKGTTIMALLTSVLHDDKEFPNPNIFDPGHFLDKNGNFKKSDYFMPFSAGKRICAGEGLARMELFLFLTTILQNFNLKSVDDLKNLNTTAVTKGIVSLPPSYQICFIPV

CYP2C9 = CYP2C9 (Homo sapiens, UniProt P11712); assay: CYP inhibition in human liver microsomes, CYP2C9; conditions: inhibitor 10 µM; HLM; NI: No Inhibitin; 10 µM
CYP2C19 = CYP2C19 (Homo sapiens, UniProt P33261); assay: CYP inhibition in human liver microsomes, CYP2C19; conditions: inhibitor 10 µM; HLM; NI: No Inhibitin; 10 µM
rCYP1A2 = molecular target: T2, rCYP1A2 (Homo sapiens, UniProt P05177); assay: Metabolic stability / reaction phenotyping with recombinant human CYP1A2
T2 sequence (P05177 1-516): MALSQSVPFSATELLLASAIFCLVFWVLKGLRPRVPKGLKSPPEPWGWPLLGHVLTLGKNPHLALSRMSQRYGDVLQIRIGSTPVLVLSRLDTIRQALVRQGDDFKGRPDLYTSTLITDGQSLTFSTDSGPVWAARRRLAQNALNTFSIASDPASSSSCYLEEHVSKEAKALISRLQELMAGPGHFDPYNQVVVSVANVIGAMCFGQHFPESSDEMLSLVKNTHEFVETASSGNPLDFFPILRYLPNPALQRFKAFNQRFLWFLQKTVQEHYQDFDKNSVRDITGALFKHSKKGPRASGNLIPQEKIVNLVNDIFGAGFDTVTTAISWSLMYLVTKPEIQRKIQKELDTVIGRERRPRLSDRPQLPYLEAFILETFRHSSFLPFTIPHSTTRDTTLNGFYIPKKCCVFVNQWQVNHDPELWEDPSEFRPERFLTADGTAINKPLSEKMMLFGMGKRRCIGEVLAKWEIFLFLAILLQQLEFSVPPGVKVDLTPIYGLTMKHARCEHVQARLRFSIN

rCYP2C8 = molecular target: T3, rCYP2C8 (Homo sapiens, UniProt P10632); assay: Metabolic stability / reaction phenotyping with recombinant human CYP2C8
T3 sequence (P10632 1-490): T1 sequence (P10632 1-490)

rCYP2C9 = rCYP2C9 (Homo sapiens, UniProt P11712); assay: Metabolic stability / reaction phenotyping with recombinant human CYP2C9
rCYP2D6 = rCYP2D6 (Homo sapiens, UniProt P10635); assay: Metabolic stability / reaction phenotyping with recombinant human CYP2D6
rCYP2C19 = rCYP2C19 (Homo sapiens, UniProt P33261); assay: Metabolic stability / reaction phenotyping with recombinant human CYP2C19
[4] = pulmonary tuberculosis patients; cited from earlier work
[5] = 1 µM test compound, 100 pmol/mL, 30 min
[6] = human, recombinant human CYP1A2, 1 µM, pH 7.4
[7] = human, recombinant human CYP2C8, 1 µM, pH 7.4
[8] = human, recombinant human CYP2C9, 1 µM, pH 7.4
[9] = human, recombinant human CYP2D6, 1 µM, pH 7.4
[10] = human, recombinant human CYP2C19, 1 µM, pH 7.4

Chain of rCYP2C19 (P33261 whole entry): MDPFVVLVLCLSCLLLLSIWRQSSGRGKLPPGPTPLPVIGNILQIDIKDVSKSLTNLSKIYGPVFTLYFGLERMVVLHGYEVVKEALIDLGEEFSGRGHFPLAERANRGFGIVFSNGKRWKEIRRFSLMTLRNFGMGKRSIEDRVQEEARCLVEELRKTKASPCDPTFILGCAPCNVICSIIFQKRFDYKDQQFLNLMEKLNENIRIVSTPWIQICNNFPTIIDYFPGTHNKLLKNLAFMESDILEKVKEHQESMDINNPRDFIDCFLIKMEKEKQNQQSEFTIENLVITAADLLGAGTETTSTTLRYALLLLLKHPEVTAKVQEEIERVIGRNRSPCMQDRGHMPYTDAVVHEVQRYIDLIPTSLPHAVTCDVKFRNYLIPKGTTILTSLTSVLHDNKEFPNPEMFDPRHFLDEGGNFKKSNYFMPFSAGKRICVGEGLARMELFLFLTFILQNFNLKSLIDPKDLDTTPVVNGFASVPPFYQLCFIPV
Chain of rCYP2C9 (P11712 whole entry): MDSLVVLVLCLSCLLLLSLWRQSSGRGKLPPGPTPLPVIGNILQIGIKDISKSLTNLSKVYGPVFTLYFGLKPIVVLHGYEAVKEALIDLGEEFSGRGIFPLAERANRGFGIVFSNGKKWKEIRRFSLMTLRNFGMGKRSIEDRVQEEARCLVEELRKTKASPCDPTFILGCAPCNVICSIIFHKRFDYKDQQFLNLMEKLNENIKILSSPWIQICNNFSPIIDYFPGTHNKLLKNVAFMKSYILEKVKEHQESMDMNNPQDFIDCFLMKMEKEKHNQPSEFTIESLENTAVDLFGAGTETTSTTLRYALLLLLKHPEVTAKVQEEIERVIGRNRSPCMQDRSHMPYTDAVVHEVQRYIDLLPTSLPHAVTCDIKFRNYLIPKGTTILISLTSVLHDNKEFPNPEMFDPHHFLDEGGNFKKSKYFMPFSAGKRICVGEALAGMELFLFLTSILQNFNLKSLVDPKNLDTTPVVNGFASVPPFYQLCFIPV
Chain of rCYP2D6 (P10635 whole entry): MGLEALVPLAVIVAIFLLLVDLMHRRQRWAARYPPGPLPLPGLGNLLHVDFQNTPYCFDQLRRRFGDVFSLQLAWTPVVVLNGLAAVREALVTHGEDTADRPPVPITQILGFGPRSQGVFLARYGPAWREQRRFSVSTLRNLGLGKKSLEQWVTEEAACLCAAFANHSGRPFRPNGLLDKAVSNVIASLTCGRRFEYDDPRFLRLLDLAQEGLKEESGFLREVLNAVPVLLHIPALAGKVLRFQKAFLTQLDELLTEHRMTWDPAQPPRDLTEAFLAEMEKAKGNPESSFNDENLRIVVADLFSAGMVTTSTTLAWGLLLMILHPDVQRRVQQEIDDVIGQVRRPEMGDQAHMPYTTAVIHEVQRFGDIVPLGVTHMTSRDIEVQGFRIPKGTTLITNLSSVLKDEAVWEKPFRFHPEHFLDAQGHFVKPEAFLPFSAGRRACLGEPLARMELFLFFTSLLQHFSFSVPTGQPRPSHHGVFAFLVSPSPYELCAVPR
Chain of CYP2C19 (P33261 whole entry): as the sequence (P33261 whole entry) above
Chain of CYP2C9 (P11712 whole entry): as the sequence (P11712 whole entry) above

CCCSc1ccc2nc(NC(=O)OC)[nH]c2c1 [Albendazole, albendazole, reference compound]
% Metabolized at 30 min Incubation with Human Liver Fractions/Enzymes Cytosol [1]: 0.00% | increase of exposure [2]: 3.2 fold | % Metabolized at 30 min Incubation with Human Liver Fractions/Enzymes HLM [3]: 50.06% | inhibition at 2 µM (CYP2C8): < 0% | inhibition at 10 µM (CYP2C8): < 0% | % Inhibition of Control Activity CYP2C9 (CYP2C9): 12.40% | % Inhibition of Control Activity CYP2C19 (CYP2C19): 4.20% | % Metabolized at 30 min Incubation with Human Liver Fractions/Enzymes rCYP1A2 (rCYP1A2; [5]): 98.92% | % Contribution of CYP Enzymes (fmCYP) in Metabolism, CYP1A2 (rCYP1A2; [6]): 74.79% | Predicted Microsomal Clint, CYP1A2 (rCYP1A2; [6]): 78.510 µL/min/mg Protein | rCYP Clint, CYP1A2 (rCYP1A2; [6]): 1.510 µL/min/pmol | % Metabolized at 30 min Incubation with Human Liver Fractions/Enzymes rCYP2C8 (rCYP2C8; [5]): 2.43% | % Contribution of CYP Enzymes (fmCYP) in Metabolism, CYP2C8 (rCYP2C8; [7]): 0.50% | Predicted Microsomal Clint, CYP2C8 (rCYP2C8; [7]): 0.525 µL/min/mg Protein | rCYP Clint, CYP2C8 (rCYP2C8; [7]): 0.008 µL/min/pmol | % Metabolized at 30 min Incubation with Human Liver Fractions/Enzymes rCYP2C9 (rCYP2C9; [5]): 5.96% | % Contribution of CYP Enzymes (fmCYP) in Metabolism, CYP2C9 (rCYP2C9; [8]): 1.87% | Predicted Microsomal Clint, CYP2C9 (rCYP2C9; [8]): 1.966 µL/min/mg Protein | rCYP Clint, CYP2C9 (rCYP2C9; [8]): 0.020 µL/min/pmol | % Metabolized at 30 min Incubation with Human Liver Fractions/Enzymes rCYP2D6 (rCYP2D6; [5]): 64.92% | % Contribution of CYP Enzymes (fmCYP) in Metabolism, CYP2D6 (rCYP2D6; [9]): 3.33% | Predicted Microsomal Clint, CYP2D6 (rCYP2D6; [9]): 3.491 µL/min/mg Protein | rCYP Clint, CYP2D6 (rCYP2D6; [9]): 0.349 µL/min/pmol | % Metabolized at 30 min Incubation with Human Liver Fractions/Enzymes rCYP2C19 (rCYP2C19; [5]): 95.76% | % Contribution of CYP Enzymes (fmCYP) in Metabolism, CYP2C19 (rCYP2C19; [10]): 19.06% | Predicted Microsomal Clint, CYP2C19 (rCYP2C19; [10]): 20.011 µL/min/mg Protein | rCYP Clint, CYP2C19 (rCYP2C19; [10]): 1.053 µL/min/pmol

CC(=O)NC[C@H]1CN(c2ccc(N3CC[S+]([O-])CC3)c(F)c2)C(=O)O1 [sutezolid sulfoxide]
metabolite to parent (sutezolid sulfoxide/ sutezolid) median concentration ratio [4]: 7.1
